In patent publication US5043165A, “Novel liposome composition for sustained release of steroidal drugs” (priority 1988, dated 1991):
“Also recorded” adds a separate entry of the source. One block for each molecule: values may come before it.

Legend:
[1] = Partition coefficient between octanol and phosphate buffer saline; assay type: physicochemical; conditions: pH 7.4
[2] = in vivo; cited from earlier work
[3] = Plasma pharmacokinetics of 14C-BDP after i.v. injection or intratracheal instillation; assay type: in vivo, male Sprague-Dawley rats; conditions: rat
Description: In order to determine the rate of absorption of the steroidal drug into the plasma after intratracheal administration, various formulations containing either the free steroid or steroid encapsulated in liposomes were prepared and tested.
The free drug control was administered intravenously to provide relative basis for measurement of bioavailability. […] The resulting plasma profiles, given in FIG. 1, illustrate the physiological removal of steroid from the blood circulation. […] As will be seen from FIG. 2, the rate of absorption of free steroid from lungs to the plasma is rapid and the physiological removal from the plasma follows the same course as that of the free drug. […] Thus, the rate of absorption from lungs to plasma of free steroid and steroid encapsulated in conventional liposomes is not much different and follows similar curve.
Plasma and lung levels of radiolabel were measured as previously described. The decrease in plasma concentration versus time following free drug administration was biphasic (FIG. 4).

[4] = TLC assay of lung samples for metabolism of BDP before absorption; assay type: in vivo, rats; conditions: thin layer chromatographic assay
[5] = rat, in vivo
[6] = mouse, in vivo, iv
[7] = Intrathecal administration: drug in cranial and spinal compartments and cerebrospinal fluid; conditions: 50 ul, 20 mg/ml

- BDP associated with the octanol (octanol/phosphate buffer saline partition) [1]: 95%
- plasma kinetics (in words) ([3]; compared with free drug): biphasic
- apparent half-life in lungs (elimination of radiolabel already released, not absorption) [5]: 3.0 h
- drug absorbed before the first time point [5]: over 98%
- radiolabel removed/absorbed from the lungs ([5]; iv): 99.7%
Structure (SMILES): CCC(=O)OCC(=O)[C@@]1(OC(=O)CC)[C@@H](C)C[C@H]2[C@@H]3CCC4=CC(=O)C=C[C@]4(C)[C@@]3(Cl)[C@@H](O)C[C@@]21C [BDP, beclomethasone dipropionate]
- secondary adverse reactions [2]: localized infection of the mouth and pharynx with Candida albicans or Aspergillus niger, hoarseness and dry mouth
- absorption from lungs (in words) ([3]; intratracheal instillation, listed as free BDP): rapid; also recorded: quickly removed from the lungs into plasma
- metabolism of BDP prior to leaving the lungs [4]: no detectable metabolism of BDP prior to leaving the lungs

- persistence in plasma [6]: disappears rapidly from the plasma
Structure (SMILES): C[C@H]1C[C@H]2[C@@H]3CCC4=CC(=O)C=C[C@]4(C)[C@@]3(Cl)[C@@H](O)C[C@]2(C)[C@@]1(O)C(=O)CO [Free beclomethasone, beclomethasone]

Structure (SMILES): C[C@]12CCC(=O)C=C1CC[C@@H]1[C@@H]2C(=O)C[C@@]2(C)[C@H]1CC[C@]2(O)C(=O)CO [free cortisone, cortisone]
- time to almost complete disappearance from cranial or spinal compartments [7]: ≤ 2.8 h
- time to elimination from cerebrospinal fluid [7]: ≤ 2.8 h
